According to patent US12723063B2, “GIPR-agonist compounds” (Eli Lilly and Company, priority 2019, dated 2026):
pKi: −log10 of the molar value. *1 amine or outer side, *2 acyl side, *3 side chain or, on linkers, in order; H or OH if unused. Where a SMILES comes first, the peptide text is derived from it. Side-chain parts run from the residue outwards. [ ]: non-standard residue; d: D form. The star is where a group is joined. C20 diacid = O=C(O)CCCCCCCCCCCCCCCCCCC(=O)*; C18 diacid = O=C(O)CCCCCCCCCCCCCCCCC(=O)*; αMePhe(2-F) = C[C@](N)(Cc1ccccc1F)C(=O)O; γGlu = O=C(O)[C@H](CCC(=O)[*:2])N[*:1]; αMeL = CC(C)C[C@](C)(N)C(=O)O; AEEA = NCCOCCOCC(=O)O; Aib = CC(C)(N)C(=O)O

Experiments:
[1] = target: T1, human GIPR (Homo sapiens, UniProt P48546); experiment: [125I]-GIP binding, SPA with WGA beads, 0.1% bacitracin; settings: geometric mean, read-out: hGIPR Ki
T1 construct: expressed in transfected cells; crude membranes
T1 sequence (P48546 22-466): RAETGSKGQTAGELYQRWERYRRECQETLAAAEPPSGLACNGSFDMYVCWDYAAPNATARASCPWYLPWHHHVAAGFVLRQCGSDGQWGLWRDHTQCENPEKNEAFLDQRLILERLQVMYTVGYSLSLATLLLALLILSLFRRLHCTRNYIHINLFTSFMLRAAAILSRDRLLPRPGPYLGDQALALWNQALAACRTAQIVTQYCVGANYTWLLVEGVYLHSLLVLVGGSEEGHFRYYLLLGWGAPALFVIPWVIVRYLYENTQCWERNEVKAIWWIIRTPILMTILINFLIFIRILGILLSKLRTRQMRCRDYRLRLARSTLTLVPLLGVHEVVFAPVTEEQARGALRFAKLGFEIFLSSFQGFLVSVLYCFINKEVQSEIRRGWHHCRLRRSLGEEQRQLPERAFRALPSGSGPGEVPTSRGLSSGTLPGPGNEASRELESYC
Method in brief: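 Ki values are geometric means (SEM, n independent days), derived from four-parameter nonlinear regression of IC50. Membranes came from hGIPR-expressing CHO cells.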

[2] = target: T2, human glucose-dependent insulinotropic peptide receptor (GIPR) (Homo sapiens, UniProt P48546); experiment: cAMP functional assay (HTRF) in HEK293 cells in presence of 0.1% casein; format: cell-based; settings: HEK293 cells expressing human GIPR, geometric mean, read-out: hGIPR cAMP Rel EC50 nM (SEM, n)
T2 construct: expressed in transfected cells; host or cells: HEK293
T2 sequence (P48546 22-466): T1 sequence (P48546 22-466)

Row | Structure (SMILES) | pKi [1] | EC50 [2]
1 | CC[C@H](C)[C@H](NC(=O)[C@H](CO)NC(=O)[C@H](Cc1ccc(O)cc1)NC(=O)[C@H](CC(=O)O)NC(=O)[C@H](CO)NC(=O)[C@@H](NC(=O)[C@H](CC(C)C)NC(=O)[C@@H](NC(=O)CNC(=O)[C@H](CCC(=O)O)NC(=O)[C@@H](C)NC(=O)[C@@H](N)Cc1ccc(O)cc1)[C@@H](C)O)[C@@H](C)CC)C(=O)N[C@@H](CC(C)C)C(=O)N[C@@H](CC(C)C)C(=O)N[C@@H](CC(=O)O)C(=O)N[C@@H](CCCCN)C(=O)N[C@@H](CCCCNC(=O)COCCOCCNC(=O)COCCOCCNC(=O)CC[C@H](NC(=O)CCCCCCCCCCCCCCCCC(=O)O)C(=O)O)C(=O)N[C@@H](C)C(=O)N[C@@H](CCC(N)=O)C(=O)NC(C)(C)C(=O)N[C@@H](CC(=O)O)C(=O)N[C@@H](Cc1ccccc1)C(=O)N[C@H](C(=O)N[C@@H](CC(N)=O)C(=O)N[C@@H](Cc1c[nH]c2ccccc12)C(=O)N[C@@H](CC(C)C)C(=O)N[C@@H](CC(C)C)C(=O)N[C@@H](C)C(=O)N[C@@H](CCC(N)=O)C(=O)NCC(=O)N1CCC[C@H]1C(=O)N[C@@H](CO)C(=O)N[C@@H](CO)C(=O)NCC(=O)N[C@@H](C)C(=O)N1CCC[C@H]1C(=O)N1CCC[C@H]1C(=O)N1CCC[C@H]1C(=O)N[C@@H](CO)C(N)=O)C(C)C [Example 32] (H-Y[dA]EGTLISDYSILLDKK([AEEA-AEEA-γGlu-C18 diacid])AQ[Aib]DFVNWLLAQGPSSGAPPPS-NH2) | 10.46 | 0.00469 nM
2 | CC[C@H](C)[C@H](NC(=O)[C@H](CO)NC(=O)[C@H](Cc1ccc(O)cc1)NC(=O)[C@H](CC(=O)O)NC(=O)[C@H](CO)NC(=O)[C@@H](NC(=O)[C@](C)(Cc1ccccc1F)NC(=O)[C@@H](NC(=O)CNC(=O)[C@H](CCC(=O)O)NC(=O)[C@H](C)NC(=O)[C@@H](Cc1ccc(O)cc1)NC(C)=O)[C@@H](C)O)[C@@H](C)CC)C(=O)N[C@@H](C)C(=O)N[C@@H](CC(C)C)C(=O)N[C@@H](CC(=O)O)C(=O)N[C@@H](CCCCN)C(=O)N[C@@H](CCCCNC(=O)COCCOCCNC(=O)COCCOCCNC(=O)CC[C@H](NC(=O)CCCCCCCCCCCCCCCCCCC(=O)O)C(=O)O)C(=O)N[C@@H](Cc1c[nH]cn1)C(=O)N[C@@H](CCC(N)=O)C(=O)NC(C)(C)C(=O)N[C@@H](CCC(=O)O)C(=O)N[C@@H](Cc1ccccc1)C(=O)N[C@H](C(=O)N[C@@H](CC(N)=O)C(=O)N[C@@H](Cc1ccc(O)cc1)C(=O)N[C@@H](CC(C)C)C(=O)N[C@@H](CC(C)C)C(=O)N[C@@H](CCC(=O)O)C(=O)NCC(=O)NCC(=O)N1CCC[C@H]1C(=O)N[C@@H](CO)C(=O)N[C@@H](CO)C(=O)NCC(=O)N[C@@H](C)C(=O)N1CCC[C@H]1C(=O)N1CCC[C@H]1C(=O)N1CCC[C@H]1C(=O)N[C@@H](CO)C(N)=O)C(C)C [Example 33] (Ac-[dY]AEGT[αMePhe(2-F)]ISDYSIALDKK([AEEA-AEEA-γGlu-C20 diacid])HQ[Aib]EFVNYLLEGGPSSGAPPPS-NH2) | 10.43 | 0.0551 nM
3 | CC[C@H](C)[C@H](NC(=O)[C@H](CO)NC(=O)[C@H](Cc1ccc(O)cc1)NC(=O)[C@H](CC(=O)O)NC(=O)[C@H](CO)NC(=O)[C@@H](NC(=O)[C@](C)(Cc1ccccc1F)NC(=O)[C@@H](NC(=O)CNC(=O)[C@H](CCC(=O)O)NC(=O)C(C)(C)NC(=O)[C@@H](N)Cc1ccc(O)cc1)[C@@H](C)O)[C@@H](C)CC)C(=O)N[C@@H](C)C(=O)N[C@@H](CC(C)C)C(=O)N[C@@H](CC(=O)O)C(=O)N[C@@H](CCCCN)C(=O)N[C@@H](CCCCNC(=O)COCCOCCNC(=O)COCCOCCNC(=O)CC[C@H](NC(=O)CCCCCCCCCCCCCCCCCCC(=O)O)C(=O)O)C(=O)N[C@@H](Cc1c[nH]cn1)C(=O)N[C@@H](CCC(N)=O)C(=O)NC(C)(C)C(=O)N[C@@H](CCC(=O)O)C(=O)N[C@@H](Cc1ccccc1)C(=O)N[C@H](C(=O)N[C@@H](CC(N)=O)C(=O)N[C@@H](Cc1ccc(O)cc1)C(=O)N[C@@H](CC(C)C)C(=O)N[C@@H](CC(C)C)C(=O)N[C@@H](C)C(=O)N[C@H](C(=O)NCC(=O)N1CCC[C@H]1C(=O)N[C@@H](CO)C(=O)N[C@@H](CO)C(=O)NCC(=O)N[C@@H](C)C(=O)N1CCC[C@H]1C(=O)N1CCC[C@H]1C(=O)N1CCC[C@H]1C(=O)N[C@@H](CO)C(N)=O)[C@@H](C)O)C(C)C [Example 34] (H-Y[Aib]EGT[αMePhe(2-F)]ISDYSIALDKK([AEEA-AEEA-γGlu-C20 diacid])HQ[Aib]EFVNYLLATGPSSGAPPPS-NH2) | 10.47 | 0.0177 nM
4 | CC[C@H](C)[C@H](NC(=O)[C@H](CO)NC(=O)[C@H](Cc1ccc(O)cc1)NC(=O)[C@H](CC(=O)O)NC(=O)[C@H](CO)NC(=O)[C@@H](NC(=O)[C@](C)(CC(C)C)NC(=O)[C@@H](NC(=O)CNC(=O)[C@H](CCC(=O)O)NC(=O)C(C)(C)NC(=O)[C@@H](N)Cc1ccc(O)cc1)[C@@H](C)O)[C@@H](C)CC)C(=O)N[C@@H](C)C(=O)N[C@@H](CC(C)C)C(=O)N[C@@H](CC(=O)O)C(=O)N[C@@H](CCCCN)C(=O)N[C@@H](CCCCNC(=O)COCCOCCNC(=O)COCCOCCNC(=O)CC[C@H](NC(=O)CCCCCCCCCCCCCCCCCCC(=O)O)C(=O)O)C(=O)N[C@@H](Cc1c[nH]cn1)C(=O)N[C@@H](CCC(N)=O)C(=O)NC(C)(C)C(=O)N[C@@H](CCC(=O)O)C(=O)N[C@@H](Cc1ccccc1)C(=O)N[C@H](C(=O)N[C@@H](CC(N)=O)C(=O)N[C@@H](Cc1ccc(O)cc1)C(=O)N[C@@H](CC(C)C)C(=O)N[C@@H](CC(C)C)C(=O)N[C@@H](C)C(=O)N[C@H](C(=O)NCC(=O)N1CCC[C@H]1C(=O)N[C@@H](CO)C(=O)N[C@@H](CO)C(=O)NCC(=O)N[C@@H](C)C(=O)N1CCC[C@H]1C(=O)N1CCC[C@H]1C(=O)N1CCC[C@H]1C(=O)N[C@@H](CO)C(N)=O)[C@@H](C)O)C(C)C [Example 35] (H-Y[Aib]EGT[αMeL]ISDYSIALDKK([AEEA-AEEA-γGlu-C20 diacid])HQ[Aib]EFVNYLLATGPSSGAPPPS-NH2) | 10.45 | 0.0125 nM
5 | CC[C@H](C)[C@H](NC(=O)[C@H](CO)NC(=O)[C@H](Cc1ccc(O)cc1)NC(=O)[C@H](CC(=O)O)NC(=O)[C@H](CO)NC(=O)[C@@H](NC(=O)[C@](C)(Cc1ccccc1F)NC(=O)[C@@H](NC(=O)CNC(=O)[C@H](CCC(=O)O)NC(=O)C(C)(C)NC(=O)[C@@H](N)Cc1ccc(O)cc1)[C@@H](C)O)[C@@H](C)CC)C(=O)N[C@@H](C)C(=O)N[C@@H](CC(C)C)C(=O)N[C@@H](CC(=O)O)C(=O)N[C@@H](CCCCN)C(=O)N[C@@H](CCCCNC(=O)COCCOCCNC(=O)COCCOCCNC(=O)CC[C@H](NC(=O)CCCCCCCCCCCCCCCCCCC(=O)O)C(=O)O)C(=O)N[C@@H](Cc1c[nH]cn1)C(=O)N[C@@H](CCC(N)=O)C(=O)NC(C)(C)C(=O)N[C@@H](CC(=O)O)C(=O)N[C@@H](Cc1ccccc1)C(=O)N[C@H](C(=O)N[C@@H](CCC(=O)O)C(=O)N[C@@H](Cc1ccc(O)cc1)C(=O)N[C@@H](CC(C)C)C(=O)N[C@@H](CC(C)C)C(=O)N[C@@H](CCC(=O)O)C(=O)N[C@H](C(=O)NCC(=O)N1CCC[C@H]1C(=O)N[C@@H](CO)C(=O)N[C@@H](CO)C(=O)NCC(=O)N[C@@H](C)C(=O)N1CCC[C@H]1C(=O)N1CCC[C@H]1C(=O)N1CCC[C@H]1C(=O)N[C@@H](CO)C(N)=O)[C@@H](C)O)C(C)C [Example 36] (H-Y[Aib]EGT[αMePhe(2-F)]ISDYSIALDKK([AEEA-AEEA-γGlu-C20 diacid])HQ[Aib]DFVEYLLETGPSSGAPPPS-NH2) | 10.17 | 0.0543 nM
6 | CC[C@H](C)[C@H](NC(=O)[C@H](CO)NC(=O)[C@H](Cc1ccc(O)cc1)NC(=O)[C@H](CC(=O)O)NC(=O)[C@H](CO)NC(=O)[C@@H](NC(=O)[C@](C)(Cc1ccccc1F)NC(=O)[C@@H](NC(=O)CNC(=O)[C@H](CCC(=O)O)NC(=O)C(C)(C)NC(=O)[C@@H](N)Cc1ccc(O)cc1)[C@@H](C)O)[C@@H](C)CC)C(=O)N[C@@H](C)C(=O)N[C@@H](CC(C)C)C(=O)N[C@@H](CC(=O)O)C(=O)N[C@@H](CCCCN)C(=O)N[C@@H](CCCCNC(=O)COCCOCCNC(=O)COCCOCCNC(=O)CC[C@H](NC(=O)CCCCCCCCCCCCCCCCCCC(=O)O)C(=O)O)C(=O)N[C@@H](Cc1c[nH]cn1)C(=O)N[C@@H](CCC(N)=O)C(=O)NC(C)(C)C(=O)N[C@@H](CC(=O)O)C(=O)N[C@@H](Cc1ccccc1)C(=O)N[C@H](C(=O)N[C@@H](CCC(=O)O)C(=O)N[C@@H](Cc1ccc(O)cc1)C(=O)N[C@@H](CC(C)C)C(=O)N[C@@H](CC(C)C)C(=O)N[C@@H](CCC(=O)O)C(=O)NCC(=O)NCC(=O)N1CCC[C@H]1C(=O)N[C@@H](CO)C(=O)N[C@@H](CO)C(=O)NCC(=O)N[C@@H](C)C(=O)N1CCC[C@H]1C(=O)N1CCC[C@H]1C(=O)N1CCC[C@H]1C(=O)N[C@@H](CO)C(N)=O)C(C)C [Example 37] (H-Y[Aib]EGT[αMePhe(2-F)]ISDYSIALDKK([AEEA-AEEA-γGlu-C20 diacid])HQ[Aib]DFVEYLLEGGPSSGAPPPS-NH2) | 10.59 | 0.036 nM
